The structures appear in SMILES notation.

From patent EP2140864A2 (H. Lundbeck A/S, priority 2001, dated 2002) come the findings set out here.

In one assay the target is T1, human GAL3 receptor (Homo sapiens, UniProt O60755).
T1 construct: expressed in transfected cells
T1 sequence (O60755 1-368): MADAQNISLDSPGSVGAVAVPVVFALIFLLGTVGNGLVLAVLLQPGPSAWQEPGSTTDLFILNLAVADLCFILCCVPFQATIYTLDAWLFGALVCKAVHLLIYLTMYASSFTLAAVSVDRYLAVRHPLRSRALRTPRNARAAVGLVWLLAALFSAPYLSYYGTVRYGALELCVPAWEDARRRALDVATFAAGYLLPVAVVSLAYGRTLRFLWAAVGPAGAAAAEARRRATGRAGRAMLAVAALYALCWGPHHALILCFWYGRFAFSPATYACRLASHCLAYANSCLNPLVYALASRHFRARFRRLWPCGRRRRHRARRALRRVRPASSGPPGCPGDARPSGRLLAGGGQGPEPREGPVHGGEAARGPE
In words: Radioligand binding at cloned human GAL3 receptor. As to conditions: indolones, cloned human receptor; read-out: Ki GalR3. The gist of the method: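 Membranes from LM(tk-) cells stably expressing human GAL3, prepared in binding buffer (HEPES-based, pH 7.4), used for radioligand binding. Solvent at final assay concentration: 3% DMSO for indolones, 1% ethanol/0.09% pluronic F-127 for pyrimidines. Binding data analysed by nonlinear regression.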
Regarding `O=C1/C(=N\c2ccc(-c3ccsc3)cc2)c2ccccc2N1c1ccccc1` [Example 304, (3Z)-1-PHENYL-3-{[4-(3-THIENYL)PHENYL]IMINO}-1,3-DIHYDRO-2H-INDOL-2-ONE], the Ki was 728 nM.

Turning to `Cc1cc(N=C2C(=O)N(c3ccsc3)c3ccccc32)ccc1Cl` [Example 290], the Ki was determined as 55 nM.

For `O=C1/C(=N\c2ccc(Cl)c(Cl)c2)c2ccccc2N1Cc1cccnc1` [Example 311], the Ki is 32 nM.

Regarding `CC(C)c1cccc(/N=C2\C(=O)N(c3ccsc3)c3ccccc32)c1` [Example 295, (3Z)-3-[(3-ISOPROPYLPHENYL)IMINO]-1-(3-THIENYL)-1,3-DIHYDRO-2H-INDOL-2-ONE], the Ki was 242 nM.

Consider `O=C1/C(=N\c2ccc3ncsc3c2)c2ccccc2N1c1ccccc1` [Example 299, (3Z)-3-(1,3-BENZOTHIAZOL-6-YLIMINO)-1-PHENYL-1,3-DIHYDRO-2H-INDOL-2-ONE], for which the Ki was 377 nM.

As to `O=C1/C(=N\c2ccc3ncccc3c2)c2ccccc2N1c1ccsc1` [Example 291, (3Z)-3-(6-QUINOLINYLIMINO)-1-(3-THIENYL)-1,3-DIHYDRO-2H-INDOL-2-ONE], the Ki was 271 nM.

In the case of `O=C1/C(=N\c2ccc(-c3cccnc3)cc2)c2ccccc2N1c1ccccc1` [Example 306], the inhibition constant Ki was determined as 160 nM.

On to `Cc1nc2cc(N=C3C(=O)N(c4ccccc4)c4ccccc43)ccc2s1` (mixture of isomers) [Example 114, 3-[(2-METHYL-1,3-BENZOTHIAZOL-5-YL)IMINO]-1-PHENYL-1,3-DIHYDRO-2H-INDOL-2-ONE], for which the Ki is 569 nM.

For the compound `O=C1/C(=N\c2cccc(C(F)(F)F)c2)c2cc(-c3ccccc3)ccc2N1c1ccccc1` [Example 308], the Ki worked out at 98 nM.

For `COc1ccc2c(c1)N(c1ccccc1)C(=O)/C2=N\c1cccc(C(F)(F)F)c1` [Example 303, (3Z)-6-METHOXY-1-PHENYL-3-{[3-(TRIFLUOROMETHYL)PHENYL]IMINO}-1,3-DIHYDRO-2H-INDOL-2-ONE], the inhibition constant Ki came out at 214 nM.

As for `O=C1/C(=N\c2ccc(Br)cc2)c2ccccc2N1c1ccsc1` [Example 269, (3Z)-3-[(4-BROMOPHENYL)IMINO]-1-(3-THIENYL)-1,3-DIHYDRO-2H-INDOL-2-ONE], the Ki came to 46 nM.

With `O=C1/C(=N\c2ccc(F)c(F)c2)c2ccccc2N1Cc1ccccn1` [Example 278], the Ki worked out at 340 nM.

`Cc1ccc(/N=C2\C(=O)N(c3ccsc3)c3ccccc32)cc1` [Example 263]: the inhibition constant (Ki) amounted to 136 nM.

Turning to `O=C1/C(=N\c2ccc3c(c2)OC(F)(F)O3)c2ccccc2N1c1ccccc1` [Example 298, (3Z)-3-[(2,2-DIFLUORO-1,3-BENZODIOXOL-5-YL)IMINO]-1-PHENYL-1,3-DIHYDRO-2H-INDOL-2-ONE], the inhibition constant (Ki) came to 22 nM.

As to `O=C1/C(=N\c2ccc(F)c(F)c2)c2ccccc2N1Cc1cccnc1` [Example 276], the Ki turned out to be 192 nM.

Take `Cc1noc(C)c1CN1C(=O)/C(=N\c2cccc(C(F)(F)F)c2)c2ccccc21` [Example 275]: the inhibition constant Ki was found to be 595 nM.

Turning to `O=C1/C(=N\c2ccc3ccccc3c2)c2ccccc2N1c1ccsc1` [Example 260, (3Z)-3-(2-NAPHTHYLIMINO)-1-(3-THIENYL)-1,3-DIHYDRO-2H-INDOL-2-ONE], the inhibitory constant (Ki) worked out at 60 nM.

In the case of `O=C1/C(=N\c2cc(Cl)cc(Cl)c2)c2ccccc2N1Cc1ccccn1` [Example 274], the Ki turned out to be 174 nM.

As for `O=C1C(=Nc2ccc(Cl)cc2)c2ccccc2N1c1ccsc1` [Example 292, (3Z)-3-[(4-CHLOROPHENTYL)IMINO]-1-(3-THIENYL)-1,3-DIHYDRO-2H-INDOL-2-ONE], the Ki came to 34 nM.

For `O=C1/C(=N\c2cc(Cl)cc(Cl)c2)c2ccccc2N1Cc1cccnc1` [Example 279], the inhibition constant Ki is 81 nM.

For the compound `O=C1/C(=N\c2ccc(I)cc2)c2ccccc2N1c1ccsc1` [Example 262, (3Z)-3-[(4-IODOPHENYL)IMINO]-1-(3-THIENYL)-1,3-DIHYDRO-2H-INDOL-2-ONE], the Ki is 46 nM.

The assay is the same for the next values; noted with them: pyrimidines, cloned human receptor; read-out: Ki GalR3.
Regarding `COc1cccc(Nc2cc(N(C)C)nc(N3CCN(c4ccccc4C(F)(F)F)CC3)n2)c1` [Example 246], the inhibition constant Ki is 270 nM.

Regarding `CN(C)c1cc(Nc2cccc(F)c2)nc(N2CCN(c3ccccn3)CC2)n1` [Example 206], the inhibitory constant (Ki) was 454 nM.

As to `CN(C)c1cccc(Nc2cc(N(C)C)nc(N3CCN(Cc4ccccc4)CC3)n2)c1` [Example 126], the Ki worked out at 99 nM.

For the compound `CN(C)c1cc(Nc2cccc(Cl)c2)nc(N2CCN(c3ccccn3)CC2)n1` [Example 224], the inhibition constant Ki came out at 218 nM.

On to `Cc1ccc(Nc2cc(N(C)C)nc(N3CCN(c4ccc(Br)cn4)CC3)n2)cc1` [Example 140], for which the inhibition constant Ki was 169 nM.

Take `Cc1ccc(Nc2cc(N(C)C)nc(N3CCN(c4ccc(O)cc4)CC3)n2)cc1` [Example 116]: the Ki was 479 nM.

As to `CN(C)c1cc(Nc2cc(F)c(F)cc2F)nc(N2CCN(c3ccccn3)CC2)n1` [Example 219], the Ki worked out at 558 nM.

`CCCCCc1ccc(Nc2cc(N(C)C)nc(N3CCN(c4ccccn4)CC3)n2)cc1` [Example 210]: the Ki came out at 58 nM.

Regarding `CCCCCCc1ccc(Nc2cc(N(C)C)nc(N3CCN(c4ccccn4)CC3)n2)cc1` [Example 187], the inhibitory constant (Ki) was found to be 19 nM.

In the case of `Cc1ccc(Nc2cc(N(C)C)nc(N3CCN(S(=O)(=O)c4ccc(C)cc4)CC3)n2)cc1` [Example 84], the inhibition constant (Ki) worked out at 261 nM.

Take `FC(F)(F)c1cccnc1N1CCN(c2nc(NC3CCCCC3)cc(N3CCCCC3)n2)CC1` [Example 35]: the inhibition constant (Ki) was 111 nM.

Regarding `CN(C)c1cc(Nc2ccc(C3CCCCC3)cc2)nc(N2CCN(c3cnccn3)CC2)n1` [Example 178], the inhibition constant Ki amounted to 26 nM.

As to `COc1cccc(Nc2cc(N(C)C)nc(NCCc3ccccc3)n2)c1` [Example 247], the inhibition constant (Ki) was found to be 195 nM.

With `Cc1cccc(Nc2cc(N(C)C)nc(Nc3ccccc3)n2)c1` [Example 52], the Ki came to 570 nM.

With `CN(C)c1cc(NC2CCCCC2)nc(Nc2ccccc2)n1` [Example 66], the inhibition constant (Ki) is 699 nM.

Consider `CCOc1cccc(Nc2cc(N(C)C)nc(N3CCN(c4ccccn4)CC3)n2)c1` [Example 135], for which the Ki was found to be 100 nM.

As for `COc1cccc(Nc2cc(N(C)C)nc(N3CCN(CC4CCCCC4)CC3)n2)c1` [Example 145], the inhibition constant (Ki) came to 155 nM.

On to `CN(C)c1cc(Nc2cccc(OCc3ccccc3)c2)nc(N2CCN(Cc3ccccc3)CC2)n1` [Example 228], for which the Ki came to 32 nM.

Consider `Cc1ccc(Nc2cc(N(C)C)nc(N(C)CCc3ccccn3)n2)cc1` [Example 161], for which the inhibition constant Ki came out at 114 nM.

Consider `COc1cccc(Nc2cc(N(C)C)nc(N3CCN(CC4CCCO4)CC3)n2)c1` (centres unmarked) [Example 233], for which the inhibition constant Ki stood at 869 nM.

As to `CN(C)c1cc(Nc2ccc(Br)cc2Cl)nc(N2CCN(c3ccccn3)CC2)n1` [Example 217], the inhibition constant Ki was 190 nM.

With `Cc1ccc(Nc2nc(Nc3cccc(C)c3)cc(N(C)C)n2)cc1` [Example 53], the Ki worked out at 980 nM.

For `CN(C)c1cc(Nc2cccc(O)c2)nc(N2CCN(Cc3ccccc3)CC2)n1` [Example 155], the Ki stood at 316 nM.

With `Cc1ccc(Nc2cc(N(C)C)nc(N3CCN(c4ccccn4)CC3)n2)cc1C` [Example 190], the Ki stood at 153 nM.

Turning to `Cc1ccc(Nc2cc(N(C)C)nc(N3CCN(c4cccc(OCc5ccccc5)c4)CC3)n2)cc1` [Example 131], the Ki was 20 nM.

With `Cc1ccc(Nc2cc(N3CCCCC3)nc(N3CCN(c4cccc(C(F)(F)F)n4)CC3)n2)cc1` [Example 33], the Ki was 181 nM.

As for `CN(C)c1cc(Nc2cccc(F)c2)nc(Nc2ccccc2)n1` [Example 57], the Ki was determined as 360 nM.

Turning to `COc1cccc(Nc2cc(N(C)C)nc(N3CCN(Cc4cccs4)CC3)n2)c1` [Example 165], the Ki came to 139 nM.

Consider `CN(C)c1cc(Nc2ccc(Br)cc2)nc(Nc2ccccc2)n1` [Example 59], for which the Ki was determined as 566 nM.

As to `CN(C)c1cc(Nc2ccc(Cl)cc2)nc(N2CCN(Cc3ccccc3)CC2)n1` [Example 171], the Ki is 25 nM.

For the compound `Cc1nc2cc(Nc3cc(N(C)C)nc(N4CCN(Cc5ccccc5)CC4)n3)ccc2s1` [Example 127], the inhibition constant (Ki) was found to be 255 nM.

In the case of `COc1ccccc1CN1CCN(c2nc(Nc3ccc(C)cc3)cc(N(C)C)n2)CC1` [Example 175], the inhibitory constant (Ki) was 56 nM.

On to `COc1ccc(C(F)(F)F)cc1Nc1cc(N(C)C)nc(N2CCN(Cc3ccccc3)CC2)n1` [Example 226], for which the Ki came to 72 nM.

`CN(C)c1cc(Nc2cccc(Cc3ccccc3)c2)nc(N2CCN(c3ccccn3)CC2)n1` [Example 216]: the Ki stood at 50 nM.

Regarding `CCCc1ccccc1Nc1cc(N(C)C)nc(N2CCN(c3ccccn3)CC2)n1` [Example 185, N^4,N^4-dimethyl-N^6-(2-propylphenyl)-2-[4-(2-pyridinyl)-1-piperazinyl]-4,6-pyrimidinediamine], the inhibition constant (Ki) worked out at 365 nM.

As for `Cc1ccc(Nc2cc(N3CCCCC3)nc(Nc3ccccc3)n2)cc1` [Example 3], the inhibitory constant (Ki) worked out at 163 nM.

As to `Cc1ccc(Nc2cc(N(C)C)nc(N3CCN(Cc4ccccc4)CC3)n2)cc1Cl` [Example 172], the inhibitory constant (Ki) stood at 20 nM.

Regarding `CN(C)c1cc(Nc2ccc(C(C)(C)C)cc2)nc(Nc2ccccc2)n1` [Example 63], the inhibition constant Ki was found to be 731 nM.

In the case of `CN(C)c1cc(Nc2cncc3ccccc23)nc(N2CCN(c3ccccn3)CC2)n1` [Example 120], the Ki is 664 nM.

As to `CCCc1ccc(Nc2cc(N(C)C)nc(N3CCN(c4ccccn4)CC3)n2)cc1` [Example 209], the inhibition constant Ki was 205 nM.

On to `CN(C)c1cc(Nc2ccc3c(c2)OCCO3)nc(N2CCN(c3ccccn3)CC2)n1` [Example 119], for which the inhibition constant (Ki) is 540 nM.
